The text below walks through data of patent US5242908A, “Use of benzylphosphonic acid derivatives for the treatment of diseases caused by viruses” (priority 1990, dated 1993).

Like-named read-outs stand apart in the source and are kept apart here.

One series has as its system Herpes simplex 1. The format is in vivo, NMRI mice. The conditions noted are these: for Survivors: groups of 5 mice. The method, then: The treatment was performed twice daily, starting after the infection. The substances were administered to the experimental animals 5 or 9 times (see Table 1).
The chemotherapeutic action can be seen from Table 1.

A short description of another series: in vitro. The conditions noted are these: hela and vero cells.
[1] abbreviates: po 9 × 0 mg/kg (so in the source).

Consider `CCCCOP(=O)(Cc1ccccc1C)OCCCC` [M, di-n-butyl 2-methylbenzylphosphonate], for which the Average survival time in the series with Herpes simplex 1 (sc 5 × 2.5 mg/kg) stood at 7.0 days; in the series with Herpes simplex 1 (sc 5 × 25 mg/kg), 7.5 days; in the series on Herpes simplex 1 (sc 5 × 250 mg/kg), 7.7 days. The values for the Survivors in the series on Herpes simplex 1 (sc 5 × 2.5 mg/kg), with Herpes simplex 1 (sc 5 × 25 mg/kg) and in the series with Herpes simplex 1 (sc 5 × 250 mg/kg) were 4, 3 and 1, respectively.
As to `COP(=O)(Cc1ccccc1C)OC` [A, dimethyl 2-methylbenzylphosphonate], the Average survival time with Herpes simplex 1 (po 5 × 2.5 mg/kg) is 10.5 days; in the series on Herpes simplex 1 (po 5 × 25 mg/kg) it was 9.0 days; with Herpes simplex 1 (sc 5 × 2.5 mg/kg) it was 12.0 days; in the series on Herpes simplex 1 (sc 5 × 25 mg/kg), 9.0 days; with Herpes simplex 1 (sc 5 × 250 mg/kg) it was 9.0 days. In addition, the Survivors in the series with Herpes simplex 1 (po 5 × 2.5 mg/kg) is 3; with Herpes simplex 1 (po 5 × 25 mg/kg), 3; in the series with Herpes simplex 1 (sc 5 × 2.5 mg/kg), 2; with Herpes simplex 1 (sc 5 × 25 mg/kg) it was 4; in the series with Herpes simplex 1 (sc 5 × 250 mg/kg), 4.
For `CCOP(=O)(Cc1ccccc1Br)OCC` [C, diethyl 2-bromobenzylphosphonate], the Average survival time in the series on Herpes simplex 1 (po 5 × 2.5 mg/kg) came to 6.7 days; with Herpes simplex 1 (po 5 × 25 mg/kg) it was 8.5 days; with Herpes simplex 1 (po 5 × 250 mg/kg) it was 8.0 days. Also, the Survivors in the series on Herpes simplex 1 (po 5 × 2.5 mg/kg) is reported as 2; in the series with Herpes simplex 1 (po 5 × 25 mg/kg), 3; in the series with Herpes simplex 1 (po 5 × 250 mg/kg), 2.
For the compound `Cc1ccccc1CP(=O)(OC(C)C)OC(C)C` [L, diisopropyl 2-methylbenzylphosphonate], the Survivors in the series with Herpes simplex 1 (po 5 × 2.5 mg/kg) is recorded as 5; in the series with Herpes simplex 1 (po 5 × 25 mg/kg) it was 2; in the series with Herpes simplex 1 (po 5 × 250 mg/kg), 2; in the series on Herpes simplex 1 (sc 5 × 2.5 mg/kg) it was 1; in the series on Herpes simplex 1 (sc 5 × 25 mg/kg) it was 0; in the series with Herpes simplex 1 (sc 5 × 250 mg/kg) it was 3. In addition, the Average survival time with Herpes simplex 1 (po 5 × 25 mg/kg) came to 8.7 days; with Herpes simplex 1 (po 5 × 250 mg/kg), 8.7 days; with Herpes simplex 1 (sc 5 × 2.5 mg/kg), 8.3 days; in the series on Herpes simplex 1 (sc 5 × 25 mg/kg), 7.4 days; in the series on Herpes simplex 1 (sc 5 × 250 mg/kg), 6.5 days.
As to `Cc1ccccc1CP(=O)(O)O` [O, di-triethylammonium 2-methylbenzylphosphonate], the MNTC in “in vitro” was 133 µg/mL.
`CCOP(=O)(Cc1ccc(Br)cc1)OCC` [D, diethyl 4-bromobenzylphosphonate]: the Average survival time with Herpes simplex 1 (po 5 × 0.25 mg/kg) is given as 8.7 days; in the series with Herpes simplex 1 (po 5 × 2.5 mg/kg), 7.0 days; in the series with Herpes simplex 1 (po 5 × 25 mg/kg), 6.0 days; with Herpes simplex 1 (po 9 × 3 mg/kg), 8.0 days; in the series on Herpes simplex 1 (po 9 × 10 mg/kg), 8.3 days; in the series with Herpes simplex 1 (po 9 × 30 mg/kg) it was 10.5 days. Moreover, the figures for the Average survival time in the series on Herpes simplex 1 (sc 5 × 0.25 mg/kg), in the series on Herpes simplex 1 (sc 5 × 2.5 mg/kg) and with Herpes simplex 1 (sc 5 × 25 mg/kg) were 9.0 days, 8.5 days and 8.0 days, respectively. The Survivors with Herpes simplex 1 (po 5 × 0.25 mg/kg) is given as 2; with Herpes simplex 1 (po 5 × 2.5 mg/kg), 2; with Herpes simplex 1 (po 5 × 25 mg/kg) it was 3; in the series on Herpes simplex 1 (po 9 × 3 mg/kg) it was 4; in the series with Herpes simplex 1 (po 9 × 10 mg/kg), 2; in the series on Herpes simplex 1 (po 9 × 30 mg/kg) it was 3. Also, the Survivors in the series on Herpes simplex 1 (sc 5 × 0.25 mg/kg) came out at 1; in the series with Herpes simplex 1 (sc 5 × 2.5 mg/kg), 3; in the series on Herpes simplex 1 (sc 5 × 25 mg/kg), 4.
Consider `CCOP(=O)(Cc1ccccc1C)OCC` [E, diethyl 2-methylbenzylphosphonate], for which the Average survival time in the series with Herpes simplex 1 (setting [1]) was 7.0 days; in the series on Herpes simplex 1 (po 9 × 3 mg/kg) it was 5.7 days; in the series on Herpes simplex 1 (po 9 × 30 mg/kg) it was 7.5 days; in the series on Herpes simplex 1 (sc 9 × 3 mg/kg), 6.3 days; with Herpes simplex 1 (sc 9 × 10 mg/kg), 6.5 days; in the series on Herpes simplex 1 (sc 9 × 30 mg/kg), 6.7 days. In addition, the Survivors is on record as 2 with Herpes simplex 1 (setting [1]); 1 in the series with Herpes simplex 1 (po 9 × 3 mg/kg); 3 in the series with Herpes simplex 1 (po 9 × 30 mg/kg); 1 in the series on Herpes simplex 1 (sc 9 × 3 mg/kg); 3 in the series on Herpes simplex 1 (sc 9 × 10 mg/kg); 2 in the series with Herpes simplex 1 (sc 9 × 30 mg/kg).
As for `CCOP(=O)(Cc1cc(C)ccc1C)OCC` [K, diethyl 2,5-dimethylbenzylphosphonate], the Average survival time in the series with Herpes simplex 1 (sc 5 × 2.5 mg/kg) is 7.4 days; in the series with Herpes simplex 1 (sc 5 × 25 mg/kg), 8.6 days; with Herpes simplex 1 (sc 5 × 250 mg/kg) it was 8.0 days. For the same compound, the Survivors came out at 0 in the series with Herpes simplex 1 (sc 5 × 2.5 mg/kg), 0 with Herpes simplex 1 (sc 5 × 25 mg/kg) and 3 in the series with Herpes simplex 1 (sc 5 × 250 mg/kg).
